Columns and labels:
Assay in all cases: viability relative to DMSO control (fraction); higher = less drug effect (more viable cells)
Conditions in all cases: 48 h
[1] = test system: primary AML patient cells (S006)
Procedure, shortened: (§1)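 Primary mononuclear tumour cells (Ficoll-isolated from blood or bone marrow, or processed lymph node; fresh or cryopreserved) were plated at 4 × 10^4 cells per well in 384-well plates with pre-plated compounds at five concentrations, one well each. Medium was RPMI-1640 with penicillin/streptomycin, L-glutamine and human serum, at 37 °C and 5% CO2 for 48 h. Viability was read as CellTiter-Glo luminescence relative to the median of 16 inner DMSO wells.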

[2] = test system: primary B-PLL patient cells (S016)
Procedure, shortened: as §1

[3] = test system: primary CLL patient cells (S031)
Procedure, shortened: as §1

[4] = test system: primary AML patient cells (S009)
Procedure, shortened: as §1

[5] = test system: primary MCL patient cells (S063)
Procedure, shortened: as §1

[6] = test system: primary BL patient cells (S005)
Procedure, shortened: as §1

[7] = test system: primary MCL patient cells (S053)
Procedure, shortened: as §1

[8] = test system: primary ALL patient cells (S088)
Procedure, shortened: as §1

[9] = test system: primary AML patient cells (S056)
Procedure, shortened: as §1

[10] = test system: primary MCL patient cells (S041)
Procedure, shortened: as §1

[11] = test system: primary AML patient cells (S060)
Procedure, shortened: as §1

[12] = test system: primary AML patient cells (S071)
Procedure, shortened: as §1

[13] = test system: primary AML patient cells (S012)
Procedure, shortened: as §1

[14] = test system: primary AML patient cells (S085)
Procedure, shortened: as §1

[15] = test system: primary FL patient cells (S087)
Procedure, shortened: as §1

[16] = test system: primary CLL patient cells (S043)
Procedure, shortened: as §1

[17] = test system: primary AML patient cells (S017)
Procedure, shortened: as §1

[18] = test system: primary AML patient cells (S072)
Procedure, shortened: as §1

[19] = test system: primary AML patient cells (S079)
Procedure, shortened: as §1

[20] = test system: primary DLBCL patient cells (S082)
Procedure, shortened: as §1

In the case of `Nc1ncn([C@H]2C[C@H](O)[C@@H](CO)O2)c(=O)n1` [Decitabine (Dacogen)], the viability ([1]; 0.024 µM) is reported as 0.971, the viability ([1]; 0.12 µM) is reported as 0.877 and the viability ([1]; 0.6 µM) is reported as 1. It also gave a viability ([1]; 3 µM) of 0.747, a viability ([1]; 15 µM) of 0.716 and a viability ([2]; 0.024 µM) of 0.927. It also gave a viability ([2]; 0.12 µM) of 0.83, a viability ([2]; 0.6 µM) of 0.972 and a viability ([2]; 3 µM) of 0.874. It also gave a viability ([2]; 15 µM) of 0.88, a viability ([3]; 0.024 µM) of 1.02 and a viability ([3]; 0.12 µM) of 0.916. The viability ([3]; 0.6 µM) was 1.04, the viability ([3]; 3 µM) was 0.869 and the viability ([3]; 15 µM) was 0.965. The viability ([4]; 0.024 µM) was 0.915, the viability ([4]; 0.12 µM) was 0.951 and the viability ([4]; 0.6 µM) was 0.854. For the same molecule, the viability ([4]; 3 µM) was 0.859, the viability ([4]; 15 µM) was 0.702 and the viability ([5]; 0.024 µM) was 1.03. It also gave a viability ([5]; 0.12 µM) of 0.985, a viability ([5]; 0.6 µM) of 1.03 and a viability ([5]; 3 µM) of 0.974. For the same molecule, the viability ([5]; 15 µM) was 0.977, the viability ([6]; 0.024 µM) was 0.833 and the viability ([6]; 0.12 µM) was 1.27. The viability ([6]; 0.6 µM) was 0.828, the viability ([6]; 3 µM) was 1.27 and the viability ([6]; 15 µM) was 0.8. The viability ([7]; 0.024 µM) was 0.969, the viability ([7]; 0.12 µM) was 0.824 and the viability ([7]; 0.6 µM) was 0.878. The viability ([7]; 3 µM) was 0.807, the viability ([7]; 15 µM) was 0.735 and the viability ([8]; 0.024 µM) was 0.978. For the same molecule, the viability ([8]; 0.12 µM) was 0.886, the viability ([8]; 0.6 µM) was 0.982 and the viability ([8]; 3 µM) was 0.778. It also gave a viability ([8]; 15 µM) of 0.799, a viability ([9]; 0.024 µM) of 0.971 and a viability ([9]; 0.12 µM) of 0.876. For the same molecule, the viability ([9]; 0.6 µM) was 0.912, the viability ([9]; 3 µM) was 0.8 and the viability ([9]; 15 µM) was 0.766. It also gave a viability ([10]; 0.024 µM) of 1.06, a viability ([10]; 0.12 µM) of 0.969 and a viability ([10]; 0.6 µM) of 1.06. For the same molecule, the viability ([10]; 3 µM) was 0.961, the viability ([10]; 15 µM) was 0.984 and the viability ([11]; 0.024 µM) was 1.01. For the same molecule, the viability ([11]; 0.12 µM) was 0.975, the viability ([11]; 0.6 µM) was 1.02 and the viability ([11]; 3 µM) was 0.99. It also gave a viability ([11]; 15 µM) of 1.01, a viability ([12]; 0.024 µM) of 0.995 and a viability ([12]; 0.12 µM) of 0.948. For the same molecule, the viability ([12]; 0.6 µM) was 0.934, the viability ([12]; 3 µM) was 0.792 and the viability ([12]; 15 µM) was 0.756. It also gave a viability ([13]; 0.024 µM) of 1, a viability ([13]; 0.12 µM) of 0.92 and a viability ([13]; 0.6 µM) of 0.943. For the same molecule, the viability ([13]; 3 µM) was 0.945, the viability ([13]; 15 µM) was 0.929 and the viability ([14]; 0.024 µM) was 0.939. The viability ([14]; 0.12 µM) was 0.904, the viability ([14]; 0.6 µM) was 0.909 and the viability ([14]; 3 µM) was 0.807. For the same molecule, the viability ([14]; 15 µM) was 0.687, the viability ([15]; 0.024 µM) was 0.969 and the viability ([15]; 0.12 µM) was 0.89. The viability ([15]; 0.6 µM) was 0.981, the viability ([15]; 3 µM) was 0.864 and the viability ([15]; 15 µM) was 0.966. For the same molecule, the viability ([16]; 0.024 µM) was 0.965, the viability ([16]; 0.12 µM) was 0.976 and the viability ([16]; 0.6 µM) was 0.975. The viability ([16]; 3 µM) was 0.959, the viability ([16]; 15 µM) was 0.899 and the viability ([17]; 0.024 µM) was 1.09. It also gave a viability ([17]; 0.12 µM) of 0.954, a viability ([17]; 0.6 µM) of 1.16 and a viability ([17]; 3 µM) of 0.918. It also gave a viability ([17]; 15 µM) of 1.08, a viability ([18]; 0.024 µM) of 1.02 and a viability ([18]; 0.12 µM) of 0.93. The viability ([18]; 0.6 µM) was 0.964, the viability ([18]; 3 µM) was 0.83 and the viability ([18]; 15 µM) was 0.811. For the same molecule, the viability ([19]; 0.024 µM) was 1.02, the viability ([19]; 0.12 µM) was 0.953 and the viability ([19]; 0.6 µM) was 0.989. It also gave a viability ([19]; 3 µM) of 0.889, a viability ([19]; 15 µM) of 0.814 and a viability ([20]; 0.024 µM) of 0.993. The viability ([20]; 0.12 µM) was 0.936, the viability ([20]; 0.6 µM) was 0.973 and the viability ([20]; 3 µM) was 0.908. For the same molecule, the viability ([20]; 15 µM) was 0.967.
`CC1(COc2ccc3c(c2)ncn3-c2ccc3cccc(N4CCC(N)CC4)c3n2)COC1` [Crenolanib] gave a viability ([1]; 0.016 µM) of 0.559, a viability ([1]; 0.08 µM) of 0.649 and a viability ([1]; 0.4 µM) of 0.889. It also gave a viability ([1]; 2 µM) of 0.977, a viability ([1]; 10 µM) of 0.333 and a viability ([2]; 0.016 µM) of 1.04. For the same molecule, the viability ([2]; 0.08 µM) was 1.24, the viability ([2]; 0.4 µM) was 0.794 and the viability ([2]; 2 µM) was 0.553. The viability ([2]; 10 µM) was 0.0382, the viability ([3]; 0.016 µM) was 1.09 and the viability ([3]; 0.08 µM) was 1.13. It also gave a viability ([3]; 0.4 µM) of 1.02, a viability ([3]; 2 µM) of 0.305 and a viability ([3]; 10 µM) of 0.0182. The viability ([4]; 0.016 µM) was 0.926, the viability ([4]; 0.08 µM) was 0.979 and the viability ([4]; 0.4 µM) was 0.921. For the same molecule, the viability ([4]; 2 µM) was 2.2, the viability ([4]; 10 µM) was 0.301 and the viability ([5]; 0.016 µM) was 1.08. It also gave a viability ([5]; 0.08 µM) of 1.13, a viability ([5]; 0.4 µM) of 0.958 and a viability ([5]; 2 µM) of 0.83. It also gave a viability ([5]; 10 µM) of 0.0336, a viability ([6]; 0.016 µM) of 0.9 and a viability ([6]; 0.08 µM) of 0.959. The viability ([6]; 0.4 µM) was 0.896, the viability ([6]; 2 µM) was 0.913 and the viability ([6]; 10 µM) was 0.414. It also gave a viability ([7]; 0.016 µM) of 1.03, a viability ([7]; 0.08 µM) of 1.07 and a viability ([7]; 0.4 µM) of 1.12. The viability ([7]; 2 µM) was 0.963, the viability ([7]; 10 µM) was 0.348 and the viability ([8]; 0.016 µM) was 0.695. The viability ([8]; 0.08 µM) was 0.674, the viability ([8]; 0.4 µM) was 0.584 and the viability ([8]; 2 µM) was 0.439. The viability ([8]; 10 µM) was 0.033, the viability ([9]; 0.016 µM) was 0.613 and the viability ([9]; 0.08 µM) was 1.35. The viability ([9]; 0.4 µM) was 0.631, the viability ([9]; 2 µM) was 0.73 and the viability ([9]; 10 µM) was 0.157. It also gave a viability ([10]; 0.016 µM) of 1.08, a viability ([10]; 0.08 µM) of 1.07 and a viability ([10]; 0.4 µM) of 0.983. The viability ([10]; 2 µM) was 0.447, the viability ([10]; 10 µM) was 0.0254 and the viability ([11]; 0.016 µM) was 1.12. For the same molecule, the viability ([11]; 0.08 µM) was 1.1, the viability ([11]; 0.4 µM) was 1.05 and the viability ([11]; 2 µM) was 1.02. For the same molecule, the viability ([11]; 10 µM) was 0.0351, the viability ([12]; 0.016 µM) was 0.672 and the viability ([12]; 0.08 µM) was 0.712. For the same molecule, the viability ([12]; 0.4 µM) was 0.778, the viability ([12]; 2 µM) was 1.38 and the viability ([12]; 10 µM) was 0.103. For the same molecule, the viability ([13]; 0.016 µM) was 0.935, the viability ([13]; 0.08 µM) was 0.964 and the viability ([13]; 0.4 µM) was 0.978. The viability ([13]; 2 µM) was 0.959, the viability ([13]; 10 µM) was 0.528 and the viability ([14]; 0.016 µM) was 1.13. For the same molecule, the viability ([14]; 0.08 µM) was 1.3, the viability ([14]; 0.4 µM) was 2.22 and the viability ([14]; 2 µM) was 1.82. It also gave a viability ([14]; 10 µM) of 0.0652, a viability ([15]; 0.016 µM) of 1.02 and a viability ([15]; 0.08 µM) of 0.971. The viability ([15]; 0.4 µM) was 1, the viability ([15]; 2 µM) was 0.847 and the viability ([15]; 10 µM) was 0.357. It also gave a viability ([16]; 0.016 µM) of 0.963, a viability ([16]; 0.08 µM) of 1.15 and a viability ([16]; 0.4 µM) of 1.17. It also gave a viability ([16]; 2 µM) of 1.06, a viability ([16]; 10 µM) of 0.0329 and a viability ([17]; 0.016 µM) of 1.05. For the same molecule, the viability ([17]; 0.08 µM) was 1.09, the viability ([17]; 0.4 µM) was 1.12 and the viability ([17]; 2 µM) was 1.16. The viability ([17]; 10 µM) was 0.109, the viability ([18]; 0.016 µM) was 0.891 and the viability ([18]; 0.08 µM) was 0.982. It also gave a viability ([18]; 0.4 µM) of 0.793, a viability ([18]; 2 µM) of 0.742 and a viability ([18]; 10 µM) of 0.0532. For the same molecule, the viability ([19]; 0.016 µM) was 1.02, the viability ([19]; 0.08 µM) was 1.17 and the viability ([19]; 0.4 µM) was 0.996. It also gave a viability ([19]; 2 µM) of 0.889, a viability ([19]; 10 µM) of 0.0548 and a viability ([20]; 0.016 µM) of 1. The viability ([20]; 0.08 µM) was 1.12, the viability ([20]; 0.4 µM) was 1.07 and the viability ([20]; 2 µM) was 0.624. The viability ([20]; 10 µM) was 0.0262.

Source: the supplement of paper PMC10733146
